Data from US20260234147A1 (priority 2023, published 2026).
Read-outs that look alike come from different tables or passages of the source.

Columns and labels:
[1] = molecular target: hMOR (Homo sapiens, UniProt P35372); experiment: Radioligand binding assay (Eurofins Cerep), [3H]DAMGO displacement
[2] = molecular target: hKOR (Homo sapiens, UniProt P41145); experiment: Radioligand binding assay (Eurofins Cerep), [3H]U69,593 displacement
[3] = molecular target: hDOR (Homo sapiens, UniProt P41143); experiment: Radioligand binding assay (Eurofins Cerep), [3H]DADLE displacement
Sequence of hDOR (P41143 whole entry): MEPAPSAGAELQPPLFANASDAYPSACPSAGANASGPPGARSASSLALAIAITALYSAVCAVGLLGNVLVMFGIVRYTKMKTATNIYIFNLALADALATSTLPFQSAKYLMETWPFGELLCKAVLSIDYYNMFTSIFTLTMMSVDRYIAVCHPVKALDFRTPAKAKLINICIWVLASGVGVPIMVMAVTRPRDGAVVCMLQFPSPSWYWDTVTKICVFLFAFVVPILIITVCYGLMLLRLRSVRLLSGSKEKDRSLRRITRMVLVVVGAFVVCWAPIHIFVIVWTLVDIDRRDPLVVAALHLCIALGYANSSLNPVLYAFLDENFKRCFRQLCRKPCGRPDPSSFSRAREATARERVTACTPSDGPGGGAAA

[4] = molecular target: T1, α2A adrenergic receptor (Homo sapiens, UniProt P08913); experiment: Radioligand binding assay (Eurofins Cerep), [3H]RX 821002 displacement
T1 construct: Eurofins Cerep (contract screening)
T1 sequence (P08913 1-465): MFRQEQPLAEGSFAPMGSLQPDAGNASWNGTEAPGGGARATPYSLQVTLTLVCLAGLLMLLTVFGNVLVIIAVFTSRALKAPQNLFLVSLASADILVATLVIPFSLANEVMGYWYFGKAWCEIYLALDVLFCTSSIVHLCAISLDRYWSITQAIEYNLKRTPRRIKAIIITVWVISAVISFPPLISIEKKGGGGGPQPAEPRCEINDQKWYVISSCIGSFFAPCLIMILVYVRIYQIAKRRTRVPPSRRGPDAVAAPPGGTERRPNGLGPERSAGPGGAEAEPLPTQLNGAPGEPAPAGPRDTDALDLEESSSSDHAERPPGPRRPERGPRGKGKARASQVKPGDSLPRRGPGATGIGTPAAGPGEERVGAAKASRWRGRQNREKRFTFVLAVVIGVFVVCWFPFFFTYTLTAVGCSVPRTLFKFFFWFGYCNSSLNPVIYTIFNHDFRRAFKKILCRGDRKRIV

[5] = molecular target: T2, α2C adrenergic receptor (Homo sapiens, UniProt P18825); experiment: as above; details: 3 independent experiments
T2 construct: Eurofins Cerep (contract screening)
T2 sequence (P18825 1-462): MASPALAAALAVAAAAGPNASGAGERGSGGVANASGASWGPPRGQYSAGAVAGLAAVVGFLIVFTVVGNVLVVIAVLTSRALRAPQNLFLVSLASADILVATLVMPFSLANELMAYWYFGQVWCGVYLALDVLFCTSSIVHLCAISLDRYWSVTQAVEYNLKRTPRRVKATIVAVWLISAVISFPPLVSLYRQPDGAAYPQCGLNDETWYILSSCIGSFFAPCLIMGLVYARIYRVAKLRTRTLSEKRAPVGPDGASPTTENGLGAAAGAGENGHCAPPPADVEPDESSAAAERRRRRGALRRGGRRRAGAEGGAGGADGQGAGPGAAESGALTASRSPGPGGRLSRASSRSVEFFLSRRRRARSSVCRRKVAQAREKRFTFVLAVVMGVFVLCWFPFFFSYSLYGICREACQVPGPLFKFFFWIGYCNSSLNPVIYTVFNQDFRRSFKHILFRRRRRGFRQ

[6] = Table B1′, read-out: MOR Ki ± SEM
[7] = Table B1′, read-out: KOR Ki ± SEM
[8] = Table B1′, read-out: DOR Ki ± SEM
[9] = alpha2A Ki ± SEM (nM), Table B1′
[10] = Table B1, mean ± SEM, 3 independent experiments, read-out: MOR Ki ± SEM
[11] = Alpha2A Ki ± SEM (nM), Table B1, mean ± SEM, 3 independent experiments
[12] = Table B1, mean ± SEM, read-out: Alpha2C Ki ± SEM

Sequence of hKOR (P41145 whole entry): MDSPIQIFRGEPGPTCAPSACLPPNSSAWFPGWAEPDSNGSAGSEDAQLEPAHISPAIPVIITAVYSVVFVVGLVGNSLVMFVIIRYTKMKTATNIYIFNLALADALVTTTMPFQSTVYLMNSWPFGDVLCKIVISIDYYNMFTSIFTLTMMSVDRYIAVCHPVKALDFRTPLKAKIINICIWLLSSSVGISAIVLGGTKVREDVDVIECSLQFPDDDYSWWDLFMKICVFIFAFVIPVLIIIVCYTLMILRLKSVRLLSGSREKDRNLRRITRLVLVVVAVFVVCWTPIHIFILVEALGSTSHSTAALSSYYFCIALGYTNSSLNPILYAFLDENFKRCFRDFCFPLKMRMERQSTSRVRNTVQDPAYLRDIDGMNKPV
Sequence of hMOR (P35372 whole entry): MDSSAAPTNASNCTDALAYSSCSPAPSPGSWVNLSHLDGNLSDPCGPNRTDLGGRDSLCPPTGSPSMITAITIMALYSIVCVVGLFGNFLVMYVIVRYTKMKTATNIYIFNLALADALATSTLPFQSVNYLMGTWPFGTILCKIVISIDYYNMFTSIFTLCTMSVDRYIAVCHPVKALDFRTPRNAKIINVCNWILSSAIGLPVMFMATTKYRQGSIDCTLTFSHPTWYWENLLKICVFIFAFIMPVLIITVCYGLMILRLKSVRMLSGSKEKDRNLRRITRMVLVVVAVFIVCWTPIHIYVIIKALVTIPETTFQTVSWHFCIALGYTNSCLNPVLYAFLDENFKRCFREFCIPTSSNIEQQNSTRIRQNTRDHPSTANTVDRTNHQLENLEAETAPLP

SMILES: COC(=O)C=C1CCN2CCC(O)(c3ccc(F)cc3)CC2C1 (centres unmarked)
- Ki [1, 6]: 672 ± 222 nM
- Ki [2, 7]: > 10000 nM
- Ki [3, 8]: > 10000 nM
- Ki [4, 9]: 311 ± 73 nM

SMILES: COC(=O)C=C1CCN2CCC(O)(c3ccccc3)CC2C1 (centres unmarked) [drawing 176]
- Ki [1, 6]: > 10000 nM
- Ki [2, 7]: 7660 ± 2670 nM
- Ki [3, 8]: > 10000 nM
- Ki [4, 9]: 155 ± 65 nM

SMILES: COC(=O)C=C1CCN2CCC(O)(c3cccc(OC)c3)CC2C1 (centres unmarked) [drawing 180]
- Ki [1, 6]: > 10000 nM
- Ki [2, 7]: > 10000 nM
- Ki [3, 8]: > 10000 nM
- Ki [4, 9]: 44 ± 5 nM

SMILES: COC(=O)CC1CCN2CCC(O)(c3ccccc3OC)CC2C1 (centres unmarked) [SG-01-006, Methyl 2-(8-hydroxy-8-(2-methoxyphenyl)octahydro-1H-quinolizin-2-yl)acetate]
- Ki [1, 10]: > 10000 nM
- Ki [4, 11]: 376 ± 72.2 nM
- Ki [5, 12]: 139 ± 20.3 nM

SMILES: COC(=O)C=C1CCN2CCC(O)(c3ccccc3OC)CC2C1 (single isomer, unassigned) [SG-01-005A]
- Ki [1, 10]: > 10000 nM
- Ki [4, 11]: 1000 ± 254 nM
- Ki [5, 12]: 489 ± 83.4 nM

SMILES: CC[C@@H]1CN2CCc3c([nH]c4cccc(OC)c34)[C@@H]2C[C@@H]1/C(=C\OC)C(=O)n1cccc1 [SUSM-526]
- Ki ([1]; Table A1, data summary #1, read-out: MOR Ki ± SEM): 2160 ± 941 nM
- Ki ([1]; Table A4, data summary #2, read-out: MOR Ki ± SEM): 719 ± 414 nM
- Ki ([1]; read-out: Ki at hMOR / opioid binding (converted)): 21600 nM
- Ki ([2]; Table A1, data summary #1, read-out: KOR Ki ± SEM): 5800 ± 1390 nM
- Ki ([2]; Table A4, data summary #2, read-out: KOR Ki ± SEM): > 10000 nM
- Ki ([2]; read-out: Ki at hKOR): 57900 nM
- Ki ([3]; Table A4, data summary #2, read-out: DOR Ki ± SEM): > 10000 nM
- Ki ([4]; Table A4, data summary #2, read-out: Alpha2A Ki ± SEM): > 10000 nM

SMILES: COC(=O)CC1CCN(CCc2c[nH]c3c(OC)cccc23)CC1 [Compound 3-42]
- Ki ([1]; Table 3-2, 3 independent experiments, read-out: Ki (nM ± SEM) MOR): > 10000 nM
- Ki ([1]; Table 3-3, 3 independent experiments, read-out: Ki (nM ± SEM) MOR): > 10000 nM
- Ki ([2]; Table 3-2, 3 independent experiments, read-out: Ki (nM ± SEM) KOR): > 10000 nM
- Ki ([2]; Table 3-3, 3 independent experiments, read-out: Ki (nM ± SEM) KOR): > 10000 nM
- Ki ([3]; Table 3-2, 3 independent experiments, read-out: Ki (nM ± SEM) DOR): > 10000 nM
- Ki ([3]; Table 3-3, 3 independent experiments, read-out: Ki (nM ± SEM) DOR): > 10000 nM
- Ki ([4]; Ki (nM ± SEM) a2A-AR, Table 3-2, 3 independent experiments): 1300 ± 129 nM
- Ki ([4]; Ki (nM ± SEM) a2A-AR, Table 3-3, 3 independent experiments): 1300 ± 129 nM
- Ki ([5]; Ki (nM ± SEM) a2C-AR, Table 3-2): 830 ± 268 nM
